This assay is described as follows: 2,2-diphenyl-1-picrylhydrazyl (DPPH) radical scavenging assay. As to conditions: for DPPH Scavenging %: 30 minutes, room temperature, dark, absorption at 517 nm; for antioxidant activity (quenching of the DPPH radical), in words: 25, 50 and 100 μg/mL. The class given is biochemical. An excerpt: The antioxidant activity of the FFAs has been evaluated by a range of methods, including spin trapping of N-oxide radicals (Okada et al. (1996) Biol. Pharm. Bull. 19: 1607), inhibition of radically initiated oxygen uptake in linoleic acid (Okada et al. (1990) J. Am. Oil Chem. Soc. 67: 858) and unsaturated fatty acid moieties of phosphatidyl choline liposomes (Ishii et al. (1989) Chem. Pharm. Bull. 37: 1396), and acting as a substrate for plant lipoxygenase (Batna and Spiteller (1994) Lipids 29: 397). We have evaluated the free radical scavenging abilities of synthetic FFAs 5a (n=1, m=9, R^1=R^2=H) and 5b (n=1, m=9, R^1=R^2=Me) against butylated hydroxytoluene (BHT) by 2,2-diphenyl-1-picrylhydrazyl (DPPH) assay.
The method of Moon and Shibamoto (Moon and Shibamoto (2009) J. Agric. Food Chem. 57: 1655) was used to evaluate antioxidant activity. DPPH (0.0177 g) was dissolved in methanol (MeOH) (100 mL) and 500 μL of this solution was added into test tubes containing 11-(5-propylfuran-2-yl)undecanoic acid and 11-(3,4-dimethyl-5-propylfuran-2-yl)undecanoic acid at concentrations of 25, 50, and 100 μg/mL after dilution of stock solutions with MeOH to 1.0 mL total volume. A 1.0 mg/mL BHT stock solution (100 μL) was diluted with 400 μL methanol and the DPPH solution (500 μL). A control solution was prepared by adding methanol (500 μL) into the DPPH solution (500 μL), and a methanol blank was used for the baseline correction. The tubes were allowed to stand at room temperature in the dark for 30 minutes and the change in the absorption at 517 nm was measured by UV-visible spectrometry. Radical scavenging ability was expressed as DPPH scavenging % and calculated using this formula: DPPH scavenging %=(control abs.−sample abs./control abs.)×100.

For `CCCc1oc(CCCCCCCCCCC(=O)O)c(C)c1C` [Compound 5b, 11-(3,4-Dimethyl-5-propylfuran-2-yl)undecanoic Acid], the “antioxidant activity (quenching of the DPPH radical), in words” value was “concentration-dependent quenching of the DPPH radical”. For the same compound, the “DPPH Scavenging %” value (25 μg/mL) is 7%. In addition, under “50 μg/mL”, the “DPPH Scavenging %” value is given as 27%. Where the note is “100 μg/mL”, the “inhibition (DPPH assay)” value was found to be 53% and the “DPPH Scavenging %” value is on record as 53%. Also, the “antioxidant power relative to BHT on a mass basis” value (of BHT, mass basis, 100 μg/mL) worked out at 57%. Further, under “of BHT, recalculated on molar concentrations”, the “antioxidant power relative to BHT based on molar concentrations” value is 83%.

For the compound `CCCc1ccc(CCCCCCCCCCC(=O)O)o1` [Compound 5a, 11-(5-Propylfuran-2-yl)undecanoic Acid], the “antioxidant activity (quenching of the DPPH radical), in words” value is listed as “virtually no antioxidant activity”. For the same compound, the “DPPH Scavenging %” value (25 μg/mL) is 4%. The “DPPH Scavenging %” value (50 μg/mL) is recorded as −2%. In addition, the “DPPH Scavenging %” value (100 μg/mL) is given as −3%.

`Cc1cc(C(C)(C)C)c(O)c(C(C)(C)C)c1` [BHT, butylated hydroxytoluene, reference compound]: where the note is “100 μg/mL”, the “inhibition (DPPH assay)” value was determined as 93% and the “DPPH Scavenging %” value is given as 93%.
